From ChEMBL document CHEMBL1201862, “PubChem BioAssay data set” (2004)
The source made the active and inactive calls.

Assays:
[1] = target: Prothrombin (Homo sapiens, UniProt P00734); experiment: Thrombin 1536 HTS Dose Response Confirmation. [Related pubchem assays: 1046 (Thrombin 1536 HTS; hits were confirmed in this assay)]; assay type: functional
[2] = target: Cysteine protease ATG4B (Homo sapiens, UniProt Q9Y4P1); assay type: functional;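 also: Fluorescence-based dose-response confirmation assay measuring inhibition of ATG4B activity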
Cysteine protease ATG4B, sequence (Q9Y4P1 whole entry): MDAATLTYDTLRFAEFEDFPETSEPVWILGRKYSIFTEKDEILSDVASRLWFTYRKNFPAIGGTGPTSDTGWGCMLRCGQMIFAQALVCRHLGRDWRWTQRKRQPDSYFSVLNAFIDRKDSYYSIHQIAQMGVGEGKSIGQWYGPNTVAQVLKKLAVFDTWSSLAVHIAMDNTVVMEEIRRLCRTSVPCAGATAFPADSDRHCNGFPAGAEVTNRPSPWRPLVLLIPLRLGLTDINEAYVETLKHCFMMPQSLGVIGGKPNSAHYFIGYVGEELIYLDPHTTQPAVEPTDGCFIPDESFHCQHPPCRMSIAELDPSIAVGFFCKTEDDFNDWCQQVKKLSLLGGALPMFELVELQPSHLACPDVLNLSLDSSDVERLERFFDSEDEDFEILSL

[3] = target: Phospholipase A2 (Homo sapiens, UniProt P04054); assay type: functional;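 also: confirmatory dose-response counterscreen on phospholipase A2, testing hits that came from an ultra-high-throughput screen for ATG4B inhibitors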
Phospholipase A2, sequence (P04054 whole entry): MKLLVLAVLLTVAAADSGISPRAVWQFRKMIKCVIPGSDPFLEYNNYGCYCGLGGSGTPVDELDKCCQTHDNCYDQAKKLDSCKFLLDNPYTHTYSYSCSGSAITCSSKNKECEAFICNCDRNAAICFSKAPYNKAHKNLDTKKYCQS

[4] = test system: Escherichia coli; experiment: microbe, parasite or virus in culture
[5] = test system: Streptococcus sp. 'group A'; experiment: Streptococcus pyogenes SK(-)GAS viability under kanamycin – luminescence, BacTiterGlo, confirmation, counter-screen for streptokinase expression inhibitor project, dose response (AID 1900); assay type: functional, organism-based
[6] = test system: Streptococcus; experiment: GAS UMAA2166 growth inhibition – luminescence, BacTiterGlo, counter-screen for streptokinase expression inhibitor project, dose response (AID 1915); assay type: functional, organism-based;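 also: potency for reduction of bacterial viability or growth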
[7] = cells; assay type: functional
[8] = test system: Escherichia coli; experiment: microbe, parasite or virus in culture; remark: listed apart in the source
[9] = target: Beta-2 adrenergic receptor (Homo sapiens, UniProt P07550); experiment: ADRB2 activation measured by internalization – cell-based, FAP fluorogen, flow cytometry, cherry pick 1, dose response (AID 588763); assay type: functional
Beta-2 adrenergic receptor, sequence (P07550 whole entry): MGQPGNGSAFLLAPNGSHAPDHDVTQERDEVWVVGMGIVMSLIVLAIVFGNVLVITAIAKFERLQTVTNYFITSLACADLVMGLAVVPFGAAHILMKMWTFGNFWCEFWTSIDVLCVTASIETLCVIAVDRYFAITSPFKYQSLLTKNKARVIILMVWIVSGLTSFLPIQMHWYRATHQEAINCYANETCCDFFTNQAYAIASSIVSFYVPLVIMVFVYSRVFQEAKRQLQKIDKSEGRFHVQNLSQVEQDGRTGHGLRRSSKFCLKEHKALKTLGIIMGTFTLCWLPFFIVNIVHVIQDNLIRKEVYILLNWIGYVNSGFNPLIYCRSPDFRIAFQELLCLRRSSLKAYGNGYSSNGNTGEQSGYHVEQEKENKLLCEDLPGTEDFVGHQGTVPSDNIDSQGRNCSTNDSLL

[10] = test system: Vero; experiment: viability of Vero cells under compound – cytotoxicity control for flavivirus capping enzyme inhibitors (AID 588742); assay type: functional; settings: Chlorocebus sabaeus
[11] = target: Genome polyprotein (dengue virus type 2, UniProt P29990); experiment: flavivirus cap methylation enzyme inhibition – biochemical, confirmation dose response, primary screen (AID 588689); assay type: functional
Genome polyprotein, sequence (P29990 2492-3391 limits assumed): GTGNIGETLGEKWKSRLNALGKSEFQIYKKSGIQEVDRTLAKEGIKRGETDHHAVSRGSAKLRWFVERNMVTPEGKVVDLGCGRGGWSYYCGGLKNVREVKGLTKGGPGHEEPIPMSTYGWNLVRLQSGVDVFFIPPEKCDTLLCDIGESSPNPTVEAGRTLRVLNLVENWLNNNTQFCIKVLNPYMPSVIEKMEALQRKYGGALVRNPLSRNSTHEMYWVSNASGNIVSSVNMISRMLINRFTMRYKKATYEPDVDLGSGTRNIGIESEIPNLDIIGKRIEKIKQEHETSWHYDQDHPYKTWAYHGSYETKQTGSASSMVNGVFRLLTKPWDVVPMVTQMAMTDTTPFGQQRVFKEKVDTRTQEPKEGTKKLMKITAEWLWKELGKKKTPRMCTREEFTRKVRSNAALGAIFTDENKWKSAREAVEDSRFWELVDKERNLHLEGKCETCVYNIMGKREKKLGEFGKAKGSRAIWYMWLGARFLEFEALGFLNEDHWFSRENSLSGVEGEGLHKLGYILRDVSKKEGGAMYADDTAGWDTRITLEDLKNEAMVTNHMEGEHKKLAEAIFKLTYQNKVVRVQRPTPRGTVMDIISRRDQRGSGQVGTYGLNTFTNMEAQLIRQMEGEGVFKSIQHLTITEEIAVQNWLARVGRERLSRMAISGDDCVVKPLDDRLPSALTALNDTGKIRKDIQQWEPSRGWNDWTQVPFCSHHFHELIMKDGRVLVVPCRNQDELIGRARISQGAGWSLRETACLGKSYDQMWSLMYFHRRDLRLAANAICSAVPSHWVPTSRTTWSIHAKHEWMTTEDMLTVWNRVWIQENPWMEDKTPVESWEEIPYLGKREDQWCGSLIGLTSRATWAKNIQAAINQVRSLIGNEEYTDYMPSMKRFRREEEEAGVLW

[12] = target: Beta-galactosidase (Escherichia coli, UniProt Q8VNN2); experiment: PubChem AID 485352; assay type: functional
Beta-galactosidase, sequence (Q8VNN2 whole entry): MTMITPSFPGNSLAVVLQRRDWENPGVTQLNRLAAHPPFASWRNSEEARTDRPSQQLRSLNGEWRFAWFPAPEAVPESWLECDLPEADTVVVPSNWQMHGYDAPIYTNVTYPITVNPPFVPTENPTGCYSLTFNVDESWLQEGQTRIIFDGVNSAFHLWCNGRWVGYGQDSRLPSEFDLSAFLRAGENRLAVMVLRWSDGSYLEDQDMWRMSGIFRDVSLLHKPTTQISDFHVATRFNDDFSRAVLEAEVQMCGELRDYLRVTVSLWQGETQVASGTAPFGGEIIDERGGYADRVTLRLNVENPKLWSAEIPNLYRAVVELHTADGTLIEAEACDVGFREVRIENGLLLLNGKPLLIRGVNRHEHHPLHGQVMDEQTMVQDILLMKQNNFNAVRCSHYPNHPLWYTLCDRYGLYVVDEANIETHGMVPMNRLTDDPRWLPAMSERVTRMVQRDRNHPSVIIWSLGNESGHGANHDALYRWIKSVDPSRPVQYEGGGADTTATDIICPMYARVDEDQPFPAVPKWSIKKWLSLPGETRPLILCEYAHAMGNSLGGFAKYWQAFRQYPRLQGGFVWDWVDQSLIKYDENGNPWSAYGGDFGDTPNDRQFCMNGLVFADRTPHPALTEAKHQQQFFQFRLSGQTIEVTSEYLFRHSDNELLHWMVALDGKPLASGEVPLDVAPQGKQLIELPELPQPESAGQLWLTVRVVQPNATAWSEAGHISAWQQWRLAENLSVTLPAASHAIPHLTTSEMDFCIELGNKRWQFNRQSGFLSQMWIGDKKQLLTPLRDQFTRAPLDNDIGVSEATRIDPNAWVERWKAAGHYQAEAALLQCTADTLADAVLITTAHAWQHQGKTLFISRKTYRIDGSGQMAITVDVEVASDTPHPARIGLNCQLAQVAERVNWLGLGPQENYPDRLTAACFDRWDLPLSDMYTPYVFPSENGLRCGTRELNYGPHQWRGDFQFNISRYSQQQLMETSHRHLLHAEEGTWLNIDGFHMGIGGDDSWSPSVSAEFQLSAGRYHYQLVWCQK

[13] = target: T1, Type-1 angiotensin II receptor (Homo sapiens, UniProt P30556); experiment: antagonism of angiotensin II type 1 receptor – cell-based, uHTS hits, selectivity assay for APJ receptor antagonist project, dose response (AID 463214); assay type: functional;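 also: antagonist potency against angiotensin II stimulated AT1 response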
T1 sequence (P30556 whole entry): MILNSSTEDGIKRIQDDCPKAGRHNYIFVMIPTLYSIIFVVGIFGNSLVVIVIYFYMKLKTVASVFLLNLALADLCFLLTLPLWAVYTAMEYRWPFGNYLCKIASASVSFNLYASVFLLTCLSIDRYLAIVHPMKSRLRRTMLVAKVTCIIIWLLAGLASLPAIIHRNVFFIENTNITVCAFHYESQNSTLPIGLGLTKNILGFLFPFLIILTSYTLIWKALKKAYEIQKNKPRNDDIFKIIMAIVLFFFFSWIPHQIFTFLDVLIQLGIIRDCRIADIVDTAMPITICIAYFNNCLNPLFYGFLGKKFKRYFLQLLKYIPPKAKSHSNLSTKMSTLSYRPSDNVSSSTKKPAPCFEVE

[14] = target: Dual specificity tyrosine-phosphorylation-regulated kinase 1A (Rattus norvegicus, UniProt Q63470); assay type: biochemical, Homo sapiens
[15] = test system: A-375; experiment: MITF: Counter assay: A375 proliferation Measured in Cell-Based System Using Plate Reader - 2084-03_Inhibitor_Dose_DryPowder_Activity. [Related pubchem assays (depositor defined):AID488944]; assay type: functional; settings: Homo sapiens
[16] = test system: Vero; experiment: cells; assay type: functional; settings: Chlorocebus sabaeus
[17] = test system: A-375; experiment: proliferation inhibition in MITF-low A375 cells – cell-based, cherry-pick samples, set 2, counter-screen for MITF modulator project, dose response (AID 540335); assay type: functional; settings: Homo sapiens

With `O=C(NN=C1CCCCCC1)c1cn(-c2ccccc2)nc1-c1ccccc1` the IC50 [1] was > 50 µM (not active), the IC50 [2] was 13.8 µM (active) and the IC50 [3] was 20.8 µM (inactive).

With `CCOC(=O)C1=C(C)c2ccccc2OC1(C(=O)OCC)C(C)C` (centres undefined) the AC50 [4] was 379 µM (active).

With `CNC(=S)N1CCN(c2c(F)cc3c(=O)c(C(=O)O)cn(C4CC4)c3c2OC)CC1C` (centres undefined) the EC50 [5] was 0.179 µM (active), the EC50 [6] was 0.229 µM (active) and the IC50 [7] was 2.57 µM (active). The AC50 [8] was 1.44 µM (active).

In the case of `Cc1ccc(NC(=O)C(c2ccc(Cl)cc2)N2CCCCC2)cc1` (centres undefined), the EC50 [9] is reported as 2.99 µM (active).

In the case of `O=C(NCC(c1cccs1)N1CCOCC1)c1ccccc1NS(=O)(=O)c1ccc(Cl)c([N+](=O)[O-])c1` (centres undefined), the CC50 [10] is reported as 38.8 µM (active) and the IC50 [11] is reported as > 100 µM (active).

For `CC(C)NC(=S)N/N=C1\CCCCC1C1CCCCC1` (centres undefined), the EC50 [12] was > 40 µM (inactive) and the IC50 [13] was > 40 µM (not active).

For `COC(=O)Nc1ccc2c(c1)N(C(=O)CCN1CCOCC1)c1ccccc1S2`, the AC50 [4] was 50.2 µM (active).

With `Cc1oc2ncnc(N)c2c1C` the AC50 [14] was 1.4 µM (active).

With `Cc1sc(NC(=O)c2ccco2)nc1-c1ccccc1` the AC50 [14] was 3.67 µM (active).

With `CCN1CCN(CCCNC(=O)c2ccc3c(Cl)c4c(nc3c2)CCCC4)CC1` the AC50 [15] was > 11 µM (active), the CC50 [16] was 18.7 µM (active) and the AC50 [17] was > 11 µM (active).
